Literature values as cited in patent publication US7595169B2, “Method for determining percent platelet aggregation” (Accumetrics, Inc., priority 2005, dated 2009).

Tested on: platelet aggregation
Details: patients with stable angina pectoris scheduled for elective coronary stent placement; literature study

COC(=O)[C@H](c1ccccc1Cl)N1CCc2sccc2C1 [clopidogrel]
patients receiving the drug who did not achieve the expected platelet aggregation inhibition: at least 10%
